The target in experiment [1] is T1, purified human MMP-2 (Homo sapiens, UniProt P08253).
T1 construct: purchased BOEHRINGER MANNHEIM; host or cells: purified from human fibrosarcoma (natural, not recombinant)
T1 sequence (P08253 110-660): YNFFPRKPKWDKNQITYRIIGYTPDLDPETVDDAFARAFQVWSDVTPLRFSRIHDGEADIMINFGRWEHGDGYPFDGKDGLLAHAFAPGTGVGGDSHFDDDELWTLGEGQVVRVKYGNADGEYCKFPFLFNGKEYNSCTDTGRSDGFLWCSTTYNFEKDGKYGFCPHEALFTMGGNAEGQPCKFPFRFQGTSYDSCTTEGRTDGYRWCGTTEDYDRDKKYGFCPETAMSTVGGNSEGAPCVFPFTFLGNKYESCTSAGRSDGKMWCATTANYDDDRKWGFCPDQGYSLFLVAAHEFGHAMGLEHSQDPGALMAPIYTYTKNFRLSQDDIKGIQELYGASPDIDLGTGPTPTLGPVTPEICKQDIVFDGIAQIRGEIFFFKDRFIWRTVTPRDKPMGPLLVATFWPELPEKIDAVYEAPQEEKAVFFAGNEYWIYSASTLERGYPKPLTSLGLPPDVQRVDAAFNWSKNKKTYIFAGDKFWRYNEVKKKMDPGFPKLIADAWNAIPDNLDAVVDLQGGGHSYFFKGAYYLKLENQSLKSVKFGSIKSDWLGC
The experiment is described as follows: Anti-MMP-2 activity, DQ-gelatin fluorimetry. In kind it is biochemical. On the procedure:
(§1) The anti-MMP-2 and anti-MMP-9 activity of the test products was measured in vitro in a biochemical model of the screening type, based on the use of a purified human MMP-2 and of a recombinant human MMP-9 and of the substrate for the latter, gelatin conjugated to fluorescein (EnzChek™ gelatinase/collagenase kit, MOLECULAR PROBES).
The MMP-2 purified from human fibrosarcoma came from BOEHRINGER MANNHEIM.
(§2) The DQ-gelatin purified from porcine skin and conjugated to fluorescein was supplied in the EnzChek™ gelatinase/collagenase kit (MOLECULAR PROBES).
The reaction buffer for studying the activity of MMP-2 (RBf1) consisted of 50 mM of Tris-HCl, 0.05% (w/v) of Triton X100 and 5 mM of CaCl2, pH 7.5.
(§3) 1,10-Phenanthroline was solubilized in the reaction buffers RBf1 and RBf2. It was tested at 8 and 80 μg/ml.
(§4) Peptide extracts A, B and C were solubilized in the reaction buffers RBf1 and RBf2. They were tested at 0.01; 0.1 and 1% (w/v). […]
(§5) After 24 hours, the signal corresponding to the degradation of the DQ-gelatin was measured by fluorimetry (excitation: 485 nm and emission: 595 nm) For each sample, the value obtained for the “samples without enzyme” was subtracted.
(§6) The results were expressed as fluorescence units per sample and as percentage variation relative to the control group. […]

Experiment [2] has as its system MMP-9 in human fibroblasts irradiated with UVA rays. The experiment is described as follows: Amount of MMP-9 secreted by UVA-irradiated human dermal fibroblasts (ELISA). The settings on record: Fibroblast, light or radiation study, 80 μg/ml, read-out: inhibition of the secretion of MMP-9 by the irradiated fibroblasts. In kind it is cell-based. The protocol: (§7) The study was carried out on human dermal fibroblasts in monolayer culture. The cells were pre-incubated for 1 hour at 37° C. in the presence of the reference products and of the test product. Then, the cells were irradiated with a single dose of 10 J/cm^2 of UVA, in the presence of the product to be tested and of the reference products.
(§8) Immediately after irradiation, the cells were incubated for 48 h at 37° C., still in the presence of the product to be tested and of the reference products.
(§9) The various MMPs are tested in the culture media using specific ELISA kits (Amersham).
(§10) 1,10-Phenanthroline, which is a nonspecific inhibitor of MMPs, and was tested at 80 μg/ml, was used as a reference product.
(§11) A 10 μg/ml retinoic acid+10 ng/ml EGF mixture was used for its abilities to induce TIMP1 (TIMP1, Tissue Inhibitor of MMP, physiological inhibitor of MMPs).
(§12) A stock solution containing 10% (w/v) of lupin peptides was prepared in deionized water. Using this solution, dilutions were prepared in the fibroblast culture medium. The peptide extract of lupin was tested at 0.5; 1 and 2% (v/v).
(§13) Irradiated and nonirradiated control cultures were incubated in parallel, in the absence of the reference products and of the test product. […]
(§14) They are given in the table below and the results are expressed as % relative to the “irradiated cells” group.

The test system of experiment [3] is MMP-3 in human fibroblasts irradiated with UVA rays. The experiment is described as follows: Amount of MMP-3 secreted by UVA-irradiated human dermal fibroblasts (ELISA). In kind it is cell-based. The settings on record: Fibroblast, light or radiation study, 80 μg/ml, read-out: inhibition of the secretion of MMP-3 by the irradiated fibroblasts. The protocol: as §7, §8, §9, §10, §11, §12, §13, §14

Experiment [4] concerns MMP-1 in human fibroblasts irradiated with UVA rays. In words: Amount of MMP-1 secreted by UVA-irradiated human dermal fibroblasts (ELISA). In kind it is cell-based. The settings on record: Fibroblast, light or radiation study, 80 μg/ml, read-out: inhibition of the secretion of MMP-1 by the irradiated fibroblasts. The protocol:
as §7, §8, §9, §10, §11, §12, §13, §14

Experiment [5] addresses T2, recombinant human MMP-9 (Homo sapiens, UniProt P14780).
T2 construct: purchased R&D SYSTEMS
In words: Anti-MMP-9 activity, DQ-gelatin fluorimetry. In kind it is biochemical. On the procedure:
as §1
The recombinant human MMP-9 came from R&D SYSTEMS.
as §2
The reaction buffer for studying the activity of MMP-9 (RBf2) consisted of 50 mM of Tris-HCl, 0.05% (w/v) of Brij 35 and 5 mM of CaCl2, pH 7.4.
as §3, §4, §5, §6

For experiment [6], the system named is purified collagenase (type III, fraction A). The experiment is described as follows: Anticollagenase activity in organotypic model of human skin sections (Masson trichrome, morphology and image analysis). In kind it is biochemical. Set-up: key to Enzymatic digestion (morphological observation): 0: zero enzymatic digestion; +: weak enzymatic digestion; ++: average enzymatic digestion; +++: strong enzymatic digestion. The settings on record: phosphoramidon 10^−3 M; collagenase 50 IU/ml, 3 hours 37° C. On the procedure:
The anticollagenase activity of a test product can be studied in vitro in an organotypic model of human skin. The principle of the test is as follows: application of purified collagenase to sections is accompanied by degradation of the endogenous collagen fibers. The collagen fibers are then stained with Masson trichrome. The digestion of the endogenous collagen fibers by the purified collagenase is evaluated qualitatively by morphological observation and quantitatively by image analysis. A product which has anticollagenase activity will partially or totally preserve the integrity of the collagen fibers placed in the presence of the enzyme.
Three dilutions were tested: 0.01; 0.1 and 1% (v/v). […]
After incubation, the sections were rinsed with the incubation medium and stained with Masson trichrome. The activity of the enzyme in the presence and absence of the extract, of the ethanol or of the reference product was evaluated by microscopic observation and scored according to the following scheme:
The activity of the collagenase in the presence and absence of the test products, of the ethanol or of the reference product was evaluated by image analysis. […] The results were expressed as a percentage of intact collagen fibers per optical field. […]
For the reference product (directly taken up in the vehicle), the percentage inhibition is calculated using the following formula: […]

2 compounds from patent publication US7029713B2, “Peptide extract of lupine and pharmaceutical or cosmetic or nutritional composition comprising the same” (Laboratoires Pharmascience, priority 1999, dated 2006) can be followed below.

The structures appear in SMILES notation.

T2 sequence (P14780 94-707): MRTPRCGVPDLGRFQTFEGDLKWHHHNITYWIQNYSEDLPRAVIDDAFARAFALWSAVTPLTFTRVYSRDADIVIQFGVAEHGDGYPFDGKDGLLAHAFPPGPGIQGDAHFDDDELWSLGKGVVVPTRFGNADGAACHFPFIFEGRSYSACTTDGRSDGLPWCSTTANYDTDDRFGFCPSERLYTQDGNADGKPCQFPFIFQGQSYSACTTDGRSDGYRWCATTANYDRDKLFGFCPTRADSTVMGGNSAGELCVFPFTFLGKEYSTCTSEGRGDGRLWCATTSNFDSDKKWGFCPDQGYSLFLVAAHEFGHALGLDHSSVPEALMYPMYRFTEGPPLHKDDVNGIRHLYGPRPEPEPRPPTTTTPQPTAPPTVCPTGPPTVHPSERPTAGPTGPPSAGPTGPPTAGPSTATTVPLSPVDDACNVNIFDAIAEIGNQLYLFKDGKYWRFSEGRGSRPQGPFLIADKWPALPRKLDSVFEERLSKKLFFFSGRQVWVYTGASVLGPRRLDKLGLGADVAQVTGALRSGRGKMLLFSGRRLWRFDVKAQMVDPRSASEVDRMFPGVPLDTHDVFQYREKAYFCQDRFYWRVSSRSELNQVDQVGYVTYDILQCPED

With `c1cnc2c(c1)ccc1cccnc12` [1,10-phenanthroline], the inhibition at 8 µg/mL in experiment [1] (8 μg/ml) is 32%; in experiment [5] (8 μg/ml), 80%. The inhibition at 80 µg/mL in experiment [1] (80 μg/ml) worked out at 73%; in experiment [2], 92%; in experiment [3], 97%; in experiment [4] it was 99%; in experiment [5] (80 μg/ml), 76%.
For the compound `CC(C)C[C@H](NP(=O)(O)O[C@@H]1O[C@@H](C)[C@H](O)[C@@H](O)[C@H]1O)C(=O)N[C@@H](Cc1c[nH]c2ccccc12)C(=O)O` [Phosphoramidon], in experiment [6], the “% inhibition of the collagenase activity (image analysis)” value stood at 16% and the “Enzymatic digestion (morphological observation)” value is “+”.
